According to article PMC4297448, “Detection of distinct glycosylation patterns on human γ-glutamyl transpeptidase 1 using antibody-lectin sandwich array (ALSA) technology” (BMC Biotechnology, 2014):

Target: T1, microvirin (MVN) (Microcystis aeruginosa, UniProt Q2MDE2)
T1 construct: full-length, N-terminal hexahistidine tag (pET-15b), E. coli BL21(DE3), Ni-NTA purified, biotinylated with NHS-SS-biotin
T1 sequence (Q2MDE2 1-108): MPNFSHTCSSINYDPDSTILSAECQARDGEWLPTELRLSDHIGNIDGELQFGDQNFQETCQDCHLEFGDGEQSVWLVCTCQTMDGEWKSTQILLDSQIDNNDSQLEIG
Experiment: CFG glycan microarray V5.[…], fluorescence
Assay type: binding
Conditions: biotinylated MVN 200 μg/mL, Alexa Fluor 488-avidin; glycan immobilised via spacer

Row | Molecule | Fluorescence (%) ^a
1 | CC(=O)N[C@@H]1[C@@H](O)[C@H](O[C@@H]2O[C@H](CO)[C@@H](O[C@@H]3O[C@H](CO[C@H]4O[C@H](CO[C@H]5O[C@H](CO)[C@@H](O)[C@H](O)[C@@H]5O[C@H]5O[C@H](CO)[C@@H](O)[C@H](O)[C@@H]5O)[C@@H](O)[C@H](O[C@H]5O[C@H](CO)[C@@H](O)[C@H](O)[C@@H]5O[C@H]5O[C@H](CO)[C@@H](O)[C@H](O)[C@@H]5O)[C@@H]4O)[C@@H](O)[C@H](O[C@H]4O[C@H](CO)[C@@H](O)[C@H](O)[C@@H]4O[C@H]4O[C@H](CO)[C@@H](O)[C@H](O)[C@@H]4O[C@H]4O[C@H](CO)[C@@H](O)[C@H](O)[C@@H]4O)[C@@H]3O)[C@H](O)[C@H]2NC(C)=O)[C@@H](CO)O[C@H]1NC(=O)C[C@H](N)C(=O)O [compound 213, Manα1-2Manα1-6(Manα1-2Manα1-3)Manα1-6(Manα1-2Manα1-2Manα1-3)Manβ1-4GlcNAcβ1-4GlcNAcβ-Sp12] | 19.8%
2 | CC(=O)N[C@@H]1[C@@H](O)[C@H](O[C@@H]2O[C@H](CO)[C@@H](O[C@@H]3O[C@H](CO[C@H]4O[C@H](CO[C@H]5O[C@H](CO)[C@@H](O)[C@H](O)[C@@H]5O[C@H]5O[C@H](CO)[C@@H](O)[C@H](O)[C@@H]5O)[C@@H](O)[C@H](O[C@H]5O[C@H](CO)[C@@H](O)[C@H](O)[C@@H]5O)[C@@H]4O)[C@@H](O)[C@H](O[C@H]4O[C@H](CO)[C@@H](O)[C@H](O)[C@@H]4O[C@H]4O[C@H](CO)[C@@H](O)[C@H](O)[C@@H]4O[C@H]4O[C@H](CO)[C@@H](O)[C@H](O)[C@@H]4O)[C@@H]3O)[C@H](O)[C@H]2NC(C)=O)[C@@H](CO)O[C@H]1NC(=O)C[C@H](N)C(=O)O [compound 212, Manα1-2Manα1-6(Manα1-3)Manα1-6(Manα1-2Manα1-2Manα1-3)Manβ1-4GlcNAcβ1-4GlcNAcβ-Sp12] | 100.0%
3 | Manα1-2Manα1-6(Manα1-2Manα1-3)Manα1-6(Manα1-2Manα1-2Manα1-3)Manα-Sp9 [compound 317] | 34.9%
4 | Manα1-2Manα1-6(Manα1-2Manα1-3)Manα-Sp9 [compound 209] | 39.5%
5 | Manα1-2Manα1-6(Manα1-3)Manα1-6(Manα1-2Manα1-2Manα1-3)Manα-Sp9 [compound 316] | 48.8%
6 | Manα1-2Manα1-2Manα1-6(Manα1-3)Manα-Sp9 [compound 215] | 78.1%
7 | Manα1-2Manα1-2Manα1-3Manα-Sp9 [compound 208] | 63.8%
8 | CC(=O)N[C@@H]1[C@@H](O)[C@H](O[C@@H]2O[C@H](CO)[C@@H](O[C@@H]3O[C@H](CO[C@H]4O[C@H](CO[C@H]5O[C@H](CO)[C@@H](O)[C@H](O)[C@@H]5O)[C@@H](O)[C@H](O[C@H]5O[C@H](CO)[C@@H](O)[C@H](O)[C@@H]5O[C@H]5O[C@H](CO)[C@@H](O)[C@H](O)[C@@H]5O)[C@@H]4O)[C@@H](O)[C@H](O[C@H]4O[C@H](CO)[C@@H](O)[C@H](O)[C@@H]4O[C@H]4O[C@H](CO)[C@@H](O)[C@H](O)[C@@H]4O)[C@@H]3O)[C@H](O)[C@H]2NC(C)=O)[C@@H](CO)O[C@H]1NC(=O)C[C@H](N)C(=O)O [compound 211, Manα1-6(Manα1-2Manα1-3)Manα1-6(Manα1-2Manα1-3)Manβ1-4GlcNAcβ1-4GlcNAcβ-Sp12] | 31.7%
9 | Manα1-2Manα1-3Manα-Sp9 [compound 210] | 57.7%
